Where a SMILES comes first, the peptide text is derived from it. The star is where a group is joined. αGalNAc = CC(=O)N[C@@H]1[C@@H](O)[C@@H](O)[C@@H](CO)O[C@@H]1*
Columns and labels:
[1] = target: T1, GalNAc-T2 (Homo sapiens, UniProt Q10471); assay: X-ray crystal structures of GalNAc-T2 complexes; assay type: binding; settings: co-crystallization with UDP and Mn+2; flexible loop conformation
T1 construct: made in house
Description: In all cases, crystals were grown by hanging drop vapour diffusion at 18 °C. […] The protein solution consisting of 3.5 mg ml^−1 of GalNAcT-2, 5 mM UDP, 5 mM MnCl2 and 6 mM MUC5AC-13 in the same buffer described above was mixed with the precipitant solution containing 1.6 M ammonium sulfate, 100 mM sodium chloride and 100 mM HEPES (pH 7). The crystals were cryoprotected in saturated lithium sulfate and frozen in a nitrogen gas stream cooled to 100 K.
All data were processed and scaled using the XDS package[34] and CCP4 software. The crystal structures were solved by molecular replacement with Phaser[35] and using the PDB entry 4D0T as the template. Initial phases were further improved by cycles of manual model building in Coot[36] and refinement with REFMAC5 (ref. [37]). The AUs of the tetragonal crystals contain 1 molecule of GalNAc-T2 (Fig. 1). Coordinates and structure factors have been deposited in the Worldwide Protein Data Bank (wwPDB, and see Table 1 for the pdb codes).

[2] = target: T1, GalNAc-T2; assay: SAXS with Ensemble Optimization Method: GalNAc-T2 conformations/oligomers with ligands; settings: GalNAc-T2 5 mg/ml, 25 mM TRIS pH 7.5, 10 mM MnCl2, 10 °C; for Dmax: maximum intramolecular distance, GNOM; as to all read-outs here: values in Å
Description: SAXS measurements were performed at the European Molecular Biology Laboratory on the storage ring PETRA-III (DESY-Hamburg) on the P12 beamline equipped with a robotic sample changer and a PILATUS-2M. The analysis of the SAXS data was performed by using the EOM[31]. Additional details are in Supplementary Methods. […]
Small-angle X-ray scattering (SAXS) and data analysis
All experiments were performed in a buffer consisting of 25 mM TRIS pH 7.5, 10 mM MnCl2. The first set of experiments contained three different protein concentrations: 10 mg/ml (180 µM), 5 mg/ml (90 µM), 2.5 mg/ml (45 µM) and 1 […]
mg/ml (18 µM). The protein was measured alone and in the presence of ten times molar excess of UDP, UDP-GalNAc, UDP-EA2 peptide, MUC5AC-13, UDP-MUC5AC-13, MUC5AC, and UDP-MUC5AC. The second set of experiments was carried out with the protein concentration fixed at 5 mg/ml, and increasing concentrations of UDP (450 µM, 900 µM, 1.8 mM, 4.5 mM and 9 mM). The concentration of MUC5AC-13 was also changed as follows: 1 mM, 5 mM and 7.5 […]
Synchrotron SAXS measurements were performed at the European Molecular
Biology Laboratory (EMBL) on the storage ring PETRA-III (DESY-Hamburg) on the P12 beamline equipped with a robotic sample changer and a PILATUS-2M. The sample-detector distance was 3.1 m. The scattering intensity, I(s), was recorded at 10 °C in a momentum transfer range of 0.007<s<0.444 Å -1, where s = (4πsinθ )/λ , 2θ is the scattering angle, and λ = 1.24 Å is the X-ray wavelength. Twenty consecutive 0.05 second measurements were performed for protein samples and buffers to monitor for radiation damage that were subsequently averaged (no systematic radiation effects were observed). Buffer scattering profiles were subtracted from the sample ones using standard procedures 8. The values of the forward scattering, I(0), and radii of gyration, Rg, were calculated from the experimental SAXS patterns using Guinier’s approximation (Supplementary Fig. 4 and 5), I(s) = I(0)exp(-s2Rg2/3), which is valid in the range sRg < 1.3.
Structural analysis of the SAXS data was performed using the Ensemble Optimization Method (EOM)9. A pool of 10,000 monomeric structures of GalNac-T2 was constructed with the program RanCh9 by connecting three-dimensional structures of the catalytic and the lectin domains, extracted from the crystallographic structure 2FFU, with a flexible linker of 12 residues with random coil conformations. To […]
properly describe the data, these monomeric ensembles were enriched with 100 equivalent curves corresponding to one dimeric arrangement. As we tested three dimers, we built three different ensembles with the same 10,000 monomeric conformations and 100 copies of each one of the dimers. The three different dimers used for SAXS are shown in Supplementary Fig. 3c and correspond to three different crystal structures obtained under different conditions.
The scattering profiles of all members of the pool were computed with the program CRYSOL using standard parameters10. The pool of structures/profiles was submitted to the genetic algorithm (GA) with the aim to select a subensemble of 50 structures/curves with the capacity to collectively describe the experimental SAXS […]
was repeated 200 times starting from different randomly selected subensembles, and the resulting solutions were analysed together. The same pool was used to describe all the measured data. Results were quantitatively analysed by displaying the Rg distributions of the selected ensembles and the relative population of monomeric and dimeric species.
Three different dimeric arrangements were introduced individually in the pool. In all three cases the dimers display similar contacts between the lectin domains and the lectin domain of one monomer with the catalytic domain of a second monomer (Supplementary Fig. 3c). We can distinguish the crystallographic dimers by the buried area parameter inferred from the PISA server. The dimers present in the crystal structure of GalNAc-T2-UDP complex (PDB entry 2FFV) are the most compact ones […]

[3] = target: T1, GalNAc-T2; assay: Tryptophan fluorescence spectroscopy, dissociation constants of GalNAc-T2 against peptides; assay type: binding; settings: Kd in the absence of UDP/Mn+2 compared with presence of the nucleotide
Description: All experiments were carried out in a Cary Eclipse spectrofluorometer (Varian) at 25 °C with GalNAc-T2 at 1 μM, and concentrations of peptides varying from 1 to 500 μM in 25 mM Tris, 150 mM NaCl, pH 7.5. The same experiments were also performed in the same buffer but containing 400 μM UDP and 1 mM MnCl2. Fluorescence emission spectra were recorded in the 300–400 nm range with an excitation wavelength of 280 nm, with slit width of 5 nm. The data analysis was performed in Prism (GraphPad software) considering a model with a single binding site (see equation (1), where F0 is the intrinsic fluorescence of the enzyme in the absence of quencher (Q), F1 is the observed fluorescence at a given quencher concentration, fa is the fractional degree of fluorescence and Kd is the dissociation constant.

[4] = target: T1, GalNAc-T2; assay: Time-lapse AFM of single GalNAc-T2 molecules with ligands; settings: in the presence of Mn+2; GalNAc-T2 2.0 nM on mica, UDP, UDP-GalNAc and MnCl2 20.0 nM, PBS pH 7.4, 20 °C
Description: AFM measurements were performed using a MultiMode 8 AFM system (Bruker). […] Additional details are in Supplementary Methods. […]
simulations were performed with the acceptor amino acid – UDPGalNAc distance and the RMSD of the Cα peptide carbon atoms as collective variables.
The values of the height and width of the Gaussian-like biasing potential were selected as 1.0 kcal·mol -1 and 0.25 Å, respectively. A temperature window of ΔT = 25000 K for the well-tempered algorithm was used together with a deposition time of 1 ps. The simulation was continued until the system completely explored the free energy landscape several times which, in terms of the simulation time, corresponds to approximately 100 ns for each metadynamics run.
Atomic Force Microscopy Imaging
In Tapping Mode image operation the cantilever driven by a piezoelectric actuator vibrates near its resonance frequency. Upon approaching the sample, the tip briefly touches the surface at the bottom of each swing, resulting in a decrease in oscillation amplitude. […]
AFM scanning requires the sample be immobilized on a nanoflat surface not to be swept away. […] The concentration of the protein incubated on the mica sheets was suitable to get isolated features that could be analyzed individually. […]
GalNAc-T2 presents a net positive charge at the working pH conditions due to its theoretical isoelectric point of 8.3. The immobilization of enzymes on mica was previously evaluated observing clearly they preserve the enzymatic activity5.
To determine how the ligands affect the conformational dynamics of GalNAc-T2, the enzyme was also incubated with ligands for 10 min under mild stirring at room temperature. […] AFM images were further analyzed by using the WSxM software6. […] At least 10 images of 10 different areas of 500 nm2 were analyzed for every sample and environment. Furthermore, each feature or associate was analyzed in detail with the zoom function of the WSxM program, performed without losing image information and or the discarding of artifacts. […]

[5] = ligand molar ratio GalNAc-T2:ligand 1:10

T1 sequence (Q10471 75-571 limits assumed): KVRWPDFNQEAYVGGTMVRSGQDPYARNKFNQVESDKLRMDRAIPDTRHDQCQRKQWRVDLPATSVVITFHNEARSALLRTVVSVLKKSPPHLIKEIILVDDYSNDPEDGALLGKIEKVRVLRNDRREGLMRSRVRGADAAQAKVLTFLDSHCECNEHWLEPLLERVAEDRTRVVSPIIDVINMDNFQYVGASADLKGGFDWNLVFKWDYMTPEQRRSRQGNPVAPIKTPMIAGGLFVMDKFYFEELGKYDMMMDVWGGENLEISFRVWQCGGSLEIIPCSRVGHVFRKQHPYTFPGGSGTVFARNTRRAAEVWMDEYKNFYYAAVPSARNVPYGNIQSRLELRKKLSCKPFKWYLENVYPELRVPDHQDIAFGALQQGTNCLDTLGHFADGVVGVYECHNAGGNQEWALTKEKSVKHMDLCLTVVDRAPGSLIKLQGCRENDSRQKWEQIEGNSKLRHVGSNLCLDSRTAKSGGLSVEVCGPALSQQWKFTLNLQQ

| Compound | form of GalNAc-T2 bound in crystal [1] | Rg from p(r) (GNOM) ([2]; ligand molar ratio 1:10) | Dmax ([2]; ligand molar ratio 1:10) | Rg (Guinier) [2, 5] | Rg (Guinier) ([2]; peptide + UDP (1:10)) | Rg from p(r) (GNOM) ([2]; peptide + UDP (1:10)) | Dmax ([2]; peptide + UDP (1:10)) | Kd in the absence vs presence of UDP/Mn+2 [3] | conformational states of GalNAc-T2 observed [4] |
| --- | --- | --- | --- | --- | --- | --- | --- | --- | --- |
| CC(=O)N[C@H]1[C@@H](O[C@H](C)[C@H](NC(=O)[C@@H](NC(=O)[C@H](CO)NC(=O)[C@@H](NC(=O)[C@@H](NC(=O)[C@@H]2CCCN2C(=O)[C@@H](NC(=O)[C@@H]2CCCN2C(=O)[C@H](CO)NC(=O)[C@@H]2CCCN2C(=O)[C@@H](NC(=O)[C@@H](NC(=O)CN)[C@@H](C)O)[C@@H](C)O[C@H]2O[C@H](CO)[C@H](O)[C@H](O)[C@H]2NC(C)=O)C(C)C)[C@@H](C)O)[C@@H](C)O)[C@@H](C)O)C(=O)N[C@@H](CO)C(=O)N[C@@H](C)C(N)=O)O[C@H](CO)[C@H](O)[C@@H]1O [MUC5AC-3-13] (H-GTT(αGalNAc)PSPVPTTSTT(αGalNAc)SA-NH2; N-terminus assumed) | bound to the inactive form of GalNAc-T2 |  |  |  |  |  |  |  |  |
| CC(=O)NCC(=O)N[C@H](C(=O)N[C@H](C(=O)N1CCC[C@H]1C(=O)N[C@@H](CO)C(=O)N1CCC[C@H]1C(=O)N[C@H](C(=O)N1CCC[C@H]1C(=O)N[C@H](C(=O)N[C@H](C(=O)N[C@@H](CO)C(=O)N[C@H](C(=O)N[C@H](C(=O)N[C@@H](CO)C(=O)N[C@@H](C)C(N)=O)[C@@H](C)O)[C@@H](C)O)[C@@H](C)O)[C@@H](C)O)C(C)C)[C@@H](C)O)[C@@H](C)O [MUC5AC] (Ac-GTTPSPVPTTSTTSA-NH2; N-terminus assumed) |  | 33.4 Å | 120 Å | 32.3±0.3 Å | 32.0±0.2 Å | 33.3 Å | 120 Å | fourfold better |  |
| CC(=O)N[C@H]1[C@@H](OP(=O)(O)OP(=O)(O)OC[C@H]2O[C@@H](n3ccc(=O)[nH]c3=O)[C@H](O)[C@@H]2O)O[C@H](CO)[C@H](O)[C@@H]1O [UDP-GalNAc, uridine diphosphate N-acetylgalactosamine, reference compound] |  | 34.6 Å | 124 Å | 34.7±0.4 Å |  |  |  |  | either the very compact or the compact structure |
